Assay results: patent US20070128217A1 (priority 2003, published 2007)

How the values were obtained:
[1] = tested on: control sera (pooled serum of ten healthy LUMC hospital workers; commercial negative donor pooled serum from the Dutch bloodbank); format: binding, human; parameters: Binding of Control serum LUMC to linear peptides / Binding of Control serum Blood-bank to linear peptides / Binding of Control serum LUMC to looped peptides / Binding of Control Serum Blood-Bank to Looped peptides / Binding of Control serum LUMC to linear peptides of the protein M of SARS-CoV Urbani / Binding of Control serum Blood-bank to linear peptides of the protein M of SARS-CoV Urbani / Binding of Control serum LUMC to looped peptides of the protein M of SARS-CoV Urbani / Binding of Control Serum Blood-Bank to Looped peptides of the protein M of SARS-CoV Urbani: unit not given here
[2] = tested on: rabbit serum obtained by immunizing a rabbit with the SARS-CoV strain Frankfurt 1; format: binding; parameters: Binding of a rabbit serum to linear peptides / Binding of a rabbit serum to looped peptides / Rabbit serum linear peptides / Rabbit serum looped peptides / Binding of a rabbit serum to linear peptides of protein N of SARS-CoV Urbani (Rabbit serum linear peptides) / Binding of a rabbit serum to looped/cyclic peptides of protein N of SARS-CoV Urbani (Rabbit serum looped peptides): unit not given here
[3] = tested on: recombinant human anti-SARS-CoV antibody 03-018; format: binding; parameters: Binding of antibody 03-018 to linear peptides of the N protein of SARS-CoV Urbani / Binding of antibody 03-018 to looped/cyclic peptides of the N protein of SARS-CoV Urbani: unit not given here

Sequence | Binding of Control Serum Blood-Bank to Looped peptides [1] | Binding of Control serum Blood-bank to linear peptides [1] | Binding of Control serum LUMC to linear peptides [1] | Binding of Control serum LUMC to looped peptides [1] | Binding of a rabbit serum to linear peptides of protein N of SARS-CoV Urbani (Rabbit serum linear peptides) [2] | Binding of a rabbit serum to looped/cyclic peptides of protein N of SARS-CoV Urbani (Rabbit serum looped peptides) [2] | Binding of antibody 03-018 to linear peptides of the N protein of SARS-CoV Urbani [3] | Binding of antibody 03-018 to looped/cyclic peptides of the N protein of SARS-CoV Urbani [3] | Control Serum Blood-Bank Looped peptides [1] | Control serum Blood-bank linear peptides [1] | Control serum LUMC linear peptides [1] | Control serum LUMC looped peptides [1] | Recognition of the peptide by the rabbit serum [2]
ARMASGGGETALALL | 0.6 | 0.8 | 0.7 | 0.8 | 0.2 | 0.0 | 0.1 | 0.3 |  |  |  |  | 
IKLDDKDPQFKDNVI |  |  |  |  | 0.1 | 0.3 | 0.1 | 0.2 | 0.6 | 0.9 | 0.9 | 0.6 | 
LPQGTTLPKGFYAEG | 0.9 | 0.8 | 0.8 | 0.8 | 0.1 | 0.7 | 0.1 | 0.3 |  |  |  |  | 
NNAATVLQLPQGTTL | 0.8 | 0.9 | 0.9 | 0.8 | 0.2 | 0.4 | 0.1 | 0.3 |  |  |  |  | 
NSPARMASGGGETAL | 0.3 | 0.9 | 0.7 | 0.4 | 0.3 | 0.3 | 0.1 | 0.2 |  |  |  |  | 
PQFKDNVILLNKHID |  |  |  |  | 0.2 | 0.4 | 0.1 | 0.2 | 0.7 | 0.7 | 0.7 | 0.8 | 
PRQKRTATKQYNVTQ | 1.0 | 1.0 | 0.9 | 0.9 |  |  | 0.1 | 0.2 |  |  |  |  | recognized
QFKDNVILLNKHIDA |  |  |  |  | 0.1 | 0.7 | 0.1 | 0.3 | 0.9 | 0.6 | 0.6 | 0.8 | 
QGTTLPKGFYAEGSR | 0.7 | 0.8 | 0.7 | 0.7 | 0.1 | 0.6 | 0.1 | 0.2 |  |  |  |  | 
QKRTATKQYNVTQAF | 0.8 | 0.8 | 0.7 | 0.8 |  |  | 0.1 | 0.2 |  |  |  |  | recognized
QLPQGTTLPKGFYAE | 0.6 | 0.9 | 0.7 | 0.6 | 0.2 | 0.4 | 0.1 | 0.2 |  |  |  |  | 
RTATKQYNVTQAFGR | 0.8 | 0.9 | 0.8 | 0.9 |  |  | 0.1 | 0.2 |  |  |  |  | recognized
TLPKGFYAEGSRGGS | 0.5 | 0.7 | 1.2 | 0.5 | 0.5 | 0.3 | 0.1 | 0.2 |  |  |  |  | 
VLQLPQGTTLPKGFY | 0.7 | 0.7 | 0.6 | 0.8 | 0.2 | 0.4 | 0.1 | 0.3 |  |  |  |  | 
